Assays:
[1] = log P[a] by reversed-phase HPLC (C18), LC-UV in the acidic range, EEC Directive 79/831 Annex V.A8; type: physicochemical; conditions: 0.9 ml/l formic acid in water and 1.0 ml/l formic acid in acetonitrile, gradient 10% to 95% acetonitrile; for chromatographic logP: reversed-phase HPLC column (C18)
Experimental: (§1) The log P values were determined according to EEC Directive 79/831 Annex V.A8 by HPLC (high-performance liquid chromatography) on a reversed-phase column (C18) using the following methods: The log P[a] value is determined by LC-UV measurement in the acidic range using 0.9 ml/1 formic acid in water and 1.0 ml/1 formic acid in acetonitrile as mobile phases (linear gradient from 10% acetonitrile to 95% acetonitrile). Calibration was carried out using a homologous series of straight-chain alkan-2-ones (having 3 to 16 carbon atoms) with known log P values. The values between successive alkanones are determined by linear regression.

[2] = log P[n] by reversed-phase HPLC (C18), LC-UV in the neutral range, EEC Directive 79/831 Annex V.A8; type: physicochemical; conditions: 79 mg/l ammonium carbonate in water and acetonitrile, gradient 10% to 95% acetonitrile; for chromatographic logP: reversed-phase HPLC column (C18)
Experimental: as §1, with “acetonitrile). The log P[n] value is determined by LC-UV measurement in the neutral range using 79 mg/l ammonium carbonate in water and acetonitrile as mobile phases (linear gradient from 10% acetonitrile to 95% acetonitrile).” for “acetonitrile).”

SMILES	chromatographic logP [1]	chromatographic logP [2]	log P[a] ([1]; listed as Comparative Example)	log P[n] ([2]; listed as Comparative Example)
CCSc1c(-c2nc3cc(C(F)(F)C(F)(F)F)nnc3n2C)nc(-c2ccc(Cl)cn2)n1C	5.25	4.66	–	–
CCSc1c(-c2nc3cc(SC(F)(F)F)nnc3n2C)nc(-c2ccc(Cl)cc2)n1C	4.51	4.34	–	–
CCSc1c(-c2nc3cc(C(F)(F)C(F)(F)F)nnc3n2C)nc(Br)n1C [Example 5, 6-[2-bromo-5-(ethylsulfanyl)-1-methyl-1H-imidazol-4-yl]-7-methyl-3-(pentafluoroethyl)-7H-imidazo[4,5-c]pyridazine]	3.76	–	–	–
CCSc1c(-c2nc3cc(C(F)(F)F)nnc3n2C)nc(-c2ccc(Cl)cc2)n1C [Example 2, 6-[2-(4-chlorophenyl)-5-(ethylsulfanyl)-1-methyl-1H-imidazol-4-yl]-7-methyl-3-(trifluoromethyl)-7H-imidazo[4,5-c]pyridazine]	4.23	4.08	4.35	4.07
CCSc1c(-c2nc3cc(C(F)(F)C(F)(F)F)nnc3n2C)nc(-c2ccc(Cl)s2)n1C	5.14	4.92	–	–
CCSc1c(I)ncn1C [Example 8 Step 1, 5-(ethylsulfanyl)-4-iodo-1-methyl-1H-imidazole]	1.61	1.91	–	–
CCSc1c(I)nc(Br)n1C [Example 8 Step 2, 2-bromo-5-(ethylsulfanyl)-4-iodo-1-methyl-1H-imidazole]	2.77	2.68	–	–
Cn1cnc2cc(C(F)(F)F)ncc21 [Example 8 Step 3, 3-methyl-6-(trifluoromethyl)-3H-imidazo[4,5-c]pyridine]	1.04	1.1	–	–
CCS(=O)(=O)c1c(-c2nc3cc(C(F)(F)C(F)(F)F)nnc3n2C)ncn1C [Example 4, 6-[5-(ethylsulfonyl)-1-methyl-1H-imidazol-4-yl]-7-methyl-3-(pentafluoroethyl)-7H-imidazo[4,5-c]pyridazine]	2.2	2.21	–	–
CCSc1c(-c2nc3cc(Br)cnc3n2C)nc(C2CC2)n1C [Example 7, 6-bromo-2-[2-cyclopropyl-5-(ethylsulfanyl)-1-methyl-1H-imidazol-4-yl]-3-methyl-3H-imidazo[4,5-b]pyridine]	2.92	3.23	–	–
CCSc1c(-c2nc3cc(SC(F)(F)F)nnc3n2C)nc(C2CC2)n1C	3.5	3.4	–	–
CCSc1c(-c2nc3cc(C(F)(F)F)ncc3n2C)nc(Br)n1C [Example 8, 2-[2-bromo-5-(ethylsulfanyl)-1-methyl-1H-imidazol-4-yl]-3-methyl-6-(trifluoromethyl)-3H-imidazo[4,5-c]pyridine]	3.04	2.85	–	–
CCSc1c(-c2nc3cc(C(F)(F)C(F)(F)F)ncc3n2C)ncn1C [Example 6, 2-[5-(ethylsulfanyl)-1-methyl-1H-imidazol-4-yl]-3-methyl-6-(pentafluoroethyl)-3H-imidazo[4,5-c]pyridine]	2.7	2.71	–	–
CCSc1c(-c2nc3cc(C(F)(F)C(F)(F)F)nnc3n2C)nc(-c2ccc(Cl)cc2)n1C	4.82	4.6	–	–
CCSc1c(-c2nc3cc(C(F)(F)C(F)(F)F)nnc3n2C)ncn1C [Example 3, 6-[5-(ethylsulfanyl)-1-methyl-1H-imidazol-4-yl]-7-methyl-3-(pentafluoroethyl)-7H-imidazo[4,5-c]pyridazine]	2.88	2.86	–	–
CCSc1c(-c2nc3cc(C(F)(F)C(F)(F)F)nnc3n2C)nc(C2CC2)n1C	3.85	3.75	–	–
CCSc1c(-c2nc3cc(C(F)(F)F)nnc3n2C)ncn1C [Example 1, 6-[5-(ethylsulfanyl)-1-methyl-1H-imidazol-4-yl]-7-methyl-3-(trifluoromethyl)-7H-imidazo[4,5-c]pyridazine]	2.26	2.37	–	–
